Reference: paper PMC9945084, “Stimulation of natural killer cells with small molecule inhibitors of CD38 for the treatment of neuroblastoma” (Chemical Science, 2023)
“And” between values parts separate entries of the source, which are not always exact repeats. Identical values can stand only once.

Legend:
[1] = biological target: T1, human recombinant CD38 (hydrolase activity) (Homo sapiens, UniProt P28907); test: Human recombinant CD38 fluorometric enzyme assay, hydrolase activity (εNAD+); type: biochemical; conditions: for remaining activity at 50 µM: 50.0 μM compound, 10 nM recombinant CD38, 10 μM εNAD+; for IC50: recombinant CD38 enzyme assay; for decrease in potency relative to hit compound 1: CD38 hydrolase IC50 versus 1
T1 sequence (P28907 whole entry): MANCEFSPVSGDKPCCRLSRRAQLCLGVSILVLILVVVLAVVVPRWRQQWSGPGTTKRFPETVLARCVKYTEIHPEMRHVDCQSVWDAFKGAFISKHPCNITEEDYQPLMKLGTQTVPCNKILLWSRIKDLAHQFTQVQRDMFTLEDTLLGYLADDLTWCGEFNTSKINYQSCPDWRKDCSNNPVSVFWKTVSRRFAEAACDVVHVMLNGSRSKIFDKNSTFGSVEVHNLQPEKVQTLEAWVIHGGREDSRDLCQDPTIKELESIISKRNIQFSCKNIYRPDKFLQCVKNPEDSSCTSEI
Experimental: Compounds were screened for inhibition against CD38 hydrolase activity in a human recombinant CD38 fluorometric assay. Recombinant CD38 was diluted in assay diluent (PBS, 0.02% Tween-20, pH 7.4) to a 4× working concentration (40 nM). Test compounds were diluted in assay diluent to a working concentration of 200 μM. Working CD38 (25.0 μL) and the 4× test compound (25.0 μL) were pipetted into a black 96-well microplate and incubated for 15 minutes at 25 °C on an orbital shaker. Following incubation, 20 μM εNAD^+ (50 μL) was pipetted into each well and fluorescence intensity was measured kinetically for 10 minutes (ex/em: 300/410 nm) using a Molecular Devices SpectraMax iD3 plate reader. Final concentrations of all components were: 10 nM recombinant CD38, 50 μM test compound (50 nM for control compound 3), and 10 μM εNAD^+. Means for data points at 1 minute 49 seconds were normalized to vehicle treated control. Values were expressed as percent remaining activity of CD38. Each assay was conducted in technical and experimental triplicate and compared to literature reported values of 14.

[2] = tested on: CD38 hydrolase activity; conditions: cited from earlier work
[3] = tested on: NAD+ levels; set-up: method as in PMID 35497564; conditions: cited from earlier work
[4] = biological target: T1, human recombinant CD38 (hydrolase activity); test: Human recombinant CD38 fluorometric enzyme assay, hydrolase activity (εNAD+); type: biochemical; conditions: 25 μM compound
[5] = tested on: SHSY5Y-GFP NB cells; test: SHSY5Y-GFP and PB NK cell co-culture assay with ch14.18-IL2; type: cell-based, human
Experimental: Following optimization, SHSY5Y-GFP cells were plated at 25 000 cells per well and incubated for 24 hours. PB NK cells stained with cell tracker deep red were added to SHSY5Y-GFP cells with 50 ng mL^−1 ch14.18-IL2 and treated with 2, 14 or vehicle control. Cells were incubated for 90 minutes at 37 °C and imaged using a BioTek Cytation 5 at 20× (Fig. 11A–C). Live SHSY5Y-GFP cells were quantitated by measuring the integrated GFP fluorescence intensity. After only 90 minutes treatment with a 1.0 μM concentration of 2 and 50 ng mL^−1 ch14.18-IL2a caused a 14 ± 3% decrease in SHSY5Y-GFP fluorescent area (Fig. 11B) relative to vehicle-treated control (Fig. 11A). […] Fig. 12 is a close-up view from a representative well showing the effects of 1 μM 2 combined with 50 ng mL^−1 ch14.18-IL2.
SHSY5Y-GFP NB cells were plated at a concentration of 25 000 cells per well (100 μL) for 12 hours on a black, clear-bottom, 96-well microplate. PB NK cells were washed with PBS and resuspended in 5 μM cell tracker deep red in RPMI 1640 without FBS for 30 minutes at 37 °C, 5% CO2. Following incubation, cells were washed with PBS and resuspended in RPMI 1640 supplemented with 10% FBS. Compounds were dissolved in DMSO and diluted to a 4 μM working solution with cell culture medium. […] The sum integration of GFP area was measured and normalized to vehicle-treated control. […]

[6] = tested on: donor 3 PB NK cells (IFNγ secretion); test: 20 day treatment of PB NK cells, IFNγ in supernatant (Lumit IFNγ assay); type: cell-based, human; conditions: donor 3, fresh medium every 3 days, day 20
Experimental: The TME has the ability to down regulate NK cell activation and function, therefore it is important to discern whether inhibition of CD38 hydrolase activity over an extended period will improve NK cell activation and support a persistent response.[62] To address this question, donor 3 PB NK cells were plated on a 12-well plate at a confluency of 1 × 10^6 cells mL^−1 in Immunocult-XF T cell expansion medium supplemented with 500 IU mL^−1 IL-2, 10 ng mL^−1 IL-15, and 0.2 μL mL^−1 CD2/CD3/CD28 T cell activator. Cells were treated with vehicle control, 2, or 14. Cells were treated with fresh medium every 3 days over the course of 20 days. Cells from each treatment group were counted on the 20th day of treatment and viability determined using trypan blue. NK cells treated with 2 or 14 were normalized to vehicle control with the percent change in viable cells presented as a function of the treatment condition (Fig. 8A). We observed 43 ± 6% more viable cells in the group treated with 14 and 36 ± 13% more viable cells in the group treated with 2, relative to vehicle control. Additionally, on the 20th day of treatment the cell supernatant was collected and analyzed for IFNγ using the Promega Lumit IFNγ assay. Treatment groups were normalized to vehicle control and the data presented as IFNγ % difference as a function of treatment (Fig. 8B). […]

[7] = tested on: SHSY5Y-GFP cells; test: Proliferative effect on SHSY5Y-GFP cells alone, 24 h imaging; type: cell-based, human; conditions: 1.0 μM, at both 20 000 and 30 000 cells per well
Experimental: SHSY5Y-GFP cells were plated at 20 000, 30 000, 40 000, and 50 000 cells per well with 6 test wells each. Cells were incubated for 24 hours and imaged with a BioTek Cytation 5 at 20× with 4 fields per well using brightfield and GFP channels. The data is presented as the sum of SHSY5Y-GFP cells in imaged fields as a function of cells per well (Fig. 9A). Optimal plating density was determined to be between 20 000 and 30 000 cells per well. Additionally, we wanted to rule out proliferative effects in SHSY5Y-GFP cells treated with 2. Cells were plated at 20 000 or 30 000 cells per well and treated with varying concentrations of 2 or vehicle control for 24 hours and imaged as described above. Data was then expressed as the sum of SHSY5Y-GFP cells in imaged fields as a function of the concentration of 2 (Fig. 9B).

[8] = tested on: Human PB NK cells (IFNγ secretion); test: Quantitation of IFNγ secreted by PB NK cells, 24 h (Lumit IFNγ assay); type: cell-based
Experimental: In light of the substantial change in viability/proliferation of PB NK cells following treatment with 2, changes in the ability of treated NK cells to secrete IFNγ were measured.[60,61] Human PB NK cells (purity > 90%) were added to a 96-well plate at a confluency of 49 000 cells per well in Immunocult-XF T cell expansion medium supplemented with 500 IU mL^−1 IL-2, 10 ng mL^−1 IL-15, and 0.2 μL mL^−1 CD2/CD3/CD28 T cell activator. These cells were exposed to varying concentrations of 2 or 14 for 24 hours, followed by quantification of IFNγ using a Lumit IFNγ assay kit (W6040, Promega, Madison, WI). Treatment groups were normalized to vehicle-treated control and data was expressed as percent change in IFNγ. As often happens, we encountered a wide variability in the response of human primary cells from different donors. […] Despite the variability in the magnitude of the IFNγ response, the trend in all 3 donors was a dose-dependent increase for both 2 and 14. Decreases in IFNγ expression at higher doses of both compounds in donors 2 and 3 may be due to modest cytotoxicity.
Human PB NK cells were plated at 49 000 cells per well (60 μL per well) on a white, clear-bottom, 96-well microplate in Immunocult-XF T cell expansion medium supplemented with 1× penicillin/streptomycin, 500 IU mL^−1 IL-2, 10 ng mL^−1 IL-15, 0.2 μL mL^−1 CD2/CD3/CD28 T cell activator. Test compounds were dissolved in DMSO and diluted to a 4× working solution. Working test compound was added to the cells (20 μL) and the cells were incubated at 37 °C, 5% CO2 for 24 hours. The last 3 columns on the microplate were left empty for IFNγ standards. The provided human IFNγ standard (10 μg mL^−1) was diluted to 10 000 pg mL^−1 using cell culture medium. The 10 000 pg mL^−1 solution was serially diluted 3.33-fold for a total of 7 standard concentrations. The IFNγ standards were plated (80 μL) in the empty columns (in triplicate) following incubation. A 5× solution of both antibodies was prepared by combining the Lumit Anti-hIFN-γ-mAb-LgBiT (24 μL) and the Lumit Anti-hIFN-γ-mAb-SmBiT (24 μL) with cell culture medium (2.4 mL). The 5× antibody solution (20 μL) was pipetted into each well. The microplate was briefly mixed for 15 seconds on a shaker at 250 rpm and incubated for 90 minutes at 37 °C, 5% CO2. Following incubation, the microplate was allowed to rest at 25 °C for 15 minutes. The Lumit detection substrate (160 μL) was diluted with Lumit detection buffer B (3040 μL) and pipetted into each well (25 μL). The microplate was allowed to incubate for 5 minutes at 25 °C and then the luminescence was measured using a Molecular Devices SpectraMax iD3 plate reader. A standard curve with averaged RLU measurements of the IFNγ concentrations was determined with GraphPad Prism using 4-parameter logistic curve fitting. […]

[9] = tested on: CD38 cyclase activity; set-up: method as in PMID 26864107; conditions: cited from earlier work
[10] = tested on: CD38 hydrolase activity; set-up: method as in PMID 26864107; conditions: cited from earlier work

Compound	remaining activity at 50 µM [1]	IC50 [1]	decrease in potency relative to hit compound 1 [1]	further results
CC1=CC(C)(C)N=C(Nc2nc(C)c3cc(C)cc(C)c3n2)N1 [Compound 1]	61.6 ± 2%	4.2 ± 0.5 µM		mode of inhibition of CD38 hydrolase activity [2]: mixed inhibition
COc1cc(C)cc2c(C)nc(NC3=NC(C)(C)C=C(C)N3)nc12 [Compound 2, 8-Methoxy-4,6-dimethyl-N-(4,4,6-trimethyl-1,4-dihydropyrimidin-2-yl)quinazolin-2-amine]		1.9 ± 0.1 µM		change in NAD+ levels [3]: significant increases; remaining activity at 25 µM [4]: 5.6 ± 0.8%; decrease in SHSY5Y-GFP fluorescent area relative to vehicle-treated control ([5]; 1.0 μM + 50 ng mL−1 ch14.18-IL2, 90 minutes, effector : target 1 : 1): 14% and 14 ± 3%; more IFNγ secreted relative to vehicle control [6]: 20 ± 1%; cell number difference between vehicle-treated and treated SHSY5Y-GFP cells [7]: < 4%; increase in IFNγ, donor 1 ([8]; donor 1, 1.0 μM): 759 ± 45%; increase in IFNγ, donor 2 ([8]; donor 2, 0.111 μM): 100 ± 29%; increase in IFNγ, donor 3 ([8]; donor 3, 0.037 μM): 18 ± 2%
CC1=CC(C)(C)N=C(Nc2nc(C)c3cccc(C)c3n2)N1 [Compound 3]	41 ± 0.03%	8.4 ± 0.7 µM	2 fold	
Cc1cc(C)c2nc(Nc3nc(C)c(C)c(O)n3)nc(C)c2c1 [Compound 4]	58.2 ± 1.4%	5.1 ± 0.9 µM		
CCOc1ccc2nc(Nc3nc(=O)c(Cc4ccccc4)c(C)[nH]3)nc(C)c2c1 [Compound 5]	57 ± 0.3%	8 µM and 8.3 µM	2 fold	
Cc1nc(NC2=NCCC(=O)N2)nc2ccccc12 [Compound 6]	66.8 ± 0.6%			
Cc1nc(Nc2nc(CCC(C)C)cc(=O)[nH]2)nc2ccccc12 [Compound 7]	60.3 ± 0.7%	4 ± 0.9 µM		
Cc1nc(NC2=NCN(CCN3CCOCC3)CN2)nc2c(C)cccc12 [Compound 9]				remaining activity at 25 µM [4]: 65.3 ± 0.6%
CC1=CC(C)(C)N=C(Nc2nc(-c3ccccc3)c3cc(C)cc(C)c3n2)N1 [Compound 11]	49.1 ± 2.2%	23 µM and 23.8 µM	5 fold	
CC1=NC(Nc2nc(C)c3cc(C)cc(C)c3n2)=NC(C)(C)C1 [Compound 12]	52 ± 9.6%		~3 fold	
CCc1ccc2c(C)nc(NC3=NC(C)(C)C=C(C)N3)nc2c1 [Compound 13]	48.1 ± 6.8%	22.4 ± 1.1 µM		
COCCO[C@H]1CC[C@H](Nc2cc(=O)n(C)c3ccc(-c4cncs4)cc23)CC1 [Compound 14, reference compound]		0.078 ± 0.03 µM		change in NAD+ levels [3]: significant increases; difference in SHSY5Y-GFP cells versus vehicle-treated control, in words ([5]; 1 μM + 50 ng mL−1 ch14.18-IL2, 90 minutes): not a statistically significant difference; more IFNγ secreted relative to vehicle control [6]: 23 ± 2%; remaining activity at 0.05 µM ([1]; positive control 14, used at 50.0 nM according to b14 and b58): 60.3 ± 1.8%; mode of inhibition of CD38 [2]: mixed inhibition; increases in IFNγ levels, in words ([8]; all 3 donors): similaer to the effects of 2
daratumumab				effect on CD38 cyclase activity [9]: modest inhibitory activity; effect on CD38 hydrolase activity [10]: enhances CD38 hydrolase activity
